Source: patent US20200087732A1, “IDENTIFICATION OF DRUGS TARGETING NON-GENETIC DRUG TOLERANCE PROGRAMS IN CANCER” (ETH ZURICH, priority 2016, published 2020)

Columns and labels:
Format in all cases: cell-based
SOX2 = SOX2 levels by Western blot after MAPKi treatment; conditions: A375-P cells, indicated times
Description: (A) A375-P cells were treated with PLX4720 (BRAFi) or DMSO for 6 h, RNA was isolated and RNA-Seq was performed. […] Differentially expressed genes (DEGs) selected for pathway analysis are represented by red and blue dots depending on the direction of the transcriptional change (red genes are induced upon PLX4720, blue genes are repressed upon PLX4720). (B) Bar graphs showing the five top pathways with significant enrichment of the analyzed DEGs. Longer bars indicate stronger significance. (C) Top deregulated genes upon treatment with PLX4720 (left column). Top genes induced and repressed by PLX4720 are shown in separate lists. (D) Indicated cell lines were treated with 1 μM PLX4720 or 0.01% DMSO (0 h) for the indicated times and the expressional changes of selected genes associated with stemness/EMT were confirmed by qPCR. […] Data shown represent mean of independent biological triplicates ±SEM. (E) Western blot analysis of the same experiment as shown in (D). As key player in the stemness signature, SOX2 levels were assessed. P-ERK1/2 levels served as positive treatment controls. Total ERK1/2 levels served as loading control. (F) A375-P cells were treated with 1 μM PLX4720, 0.5 μM AZD6244 (MEK1/2 inhibitor) or 0.01% DMSO for the indicated times and SOX2 levels were assessed by Western blot analysis. […] (G) A375-P cells were treated with 1 μM PLX4720 (BRAFi), 0.5 μM AZD6244 (MEKi), a combination of both drugs or 0.01% DMSO for the indicated times and SOX2 levels were assessed by Western blot analysis. […] (H) A375-P cells were treated with 1 μM PLX4720 (BRAFi), 0.5 μM AZD6244 (MEKi), a combination of both drugs or 0.01% DMSO for the 24 h and the expressional changes of selected genes associated with stemness/EMT were confirmed by qPCR. […] For all Western blots, individual time points were assessed in at least two independent experiments. Representative data is shown.

[1] = tested on: genes associated with stemness/EMT; test: qPCR of selected genes associated with stemness/EMT in A375-P cells; conditions: FIG. 1H, 1 μM PLX4720, 0.5 μM AZD6244 or combination of both, 24 h
Description: (A) A375-P cells were treated with PLX4720 (BRAFi) or DMSO for 6 h, RNA was isolated and RNA-Seq was performed. […] (B) Bar graphs showing the five top pathways with significant enrichment of the analyzed DEGs. Longer bars indicate stronger significance. […] Data shown represent mean of independent biological triplicates ±SEM. (E) Western blot analysis of the same experiment as shown in (D). As key player in the stemness signature, SOX2 levels were assessed. P-ERK1/2 levels served as positive treatment controls. Total ERK1/2 levels served as loading control. (F) A375-P cells were treated with 1 μM PLX4720, 0.5 μM AZD6244 (MEK1/2 inhibitor) or 0.01% DMSO for the indicated times and SOX2 levels were assessed by Western blot analysis. […] (G) A375-P cells were treated with 1 μM PLX4720 (BRAFi), 0.5 μM AZD6244 (MEKi), a combination of both drugs or 0.01% DMSO for the indicated times and SOX2 levels were assessed by Western blot analysis. […] For all Western blots, individual time points were assessed in at least two independent experiments. Representative data is shown.

S6K and BAD = test: Survival signaling by Western blot in A375-P/pTRIPZ cells; conditions: FIG. 2G, PLX4720 for 48 h
Description: (§1) (A) A375-P cells were transfected with 100 nM siRNA targeting SOX2 or a negative control siRNA. Cells were then treated with PLX4720 (BRAFi) or DMSO for 48 h. 2 h before harvesting, cells were pulsed with 3 uM EdU to label cycling cells. EdU-positive cells were detected using flow cytometry. […] Representative data is shown. (B) Quantification of experiment (A). For each condition, percentage of cycling cells upon siRNA knockdown of SOX2 was normalized to the negative control siRNA. Data shown represent mean of independent biological triplicates ±SEM. (C) A375-P cells stably transduced with pTRIPZ-SOX2 vector were treated with the indicated concentrations of doxycycline for three days or with 1 μM PLX4720 (PLX) for 24 h. SOX2 overexpression was confirmed by Western blot analysis. Lamin A served as loading control. Individual concentrations were assessed in at least two independent experiments. Representative results are shown. (D) A375-P/pTRIPZ-control or -SOX2 cells were pre-treated with 0 ng/ml (negative control) or with 50 ng/ml doxycycline for 24 h, and subsequently with DMSO or PLX4720 for an additional 48 h. 2 h before harvesting, cells were pulsed with 3 uM EdU to label cycling cells. EdU-positive cells were detected using flow cytometry. […] Cell viability was assessed by PrestoBlue assay and IC50 values were calculated. […] Survival signaling was assessed by Western blot. […]

[2] = tested on: A375-P/pTRIPZ-control or -SOX2 cells; test: Cell viability by PrestoBlue assay; conditions: FIG. 2E-F; pTRIPZ-SOX2 cells with 50 ng/ml doxycycline versus 0 ng/ml; serial dilutions of PLX4720 for four days
Description: as §1

[3] = FIG. 1F, 1 μM PLX4720 or 0.5 μM AZD6244
[4] = FIG. 1G, 1 μM PLX4720, 0.5 μM AZD6244 or combination of both

| Structure (SMILES) | SOX2 levels (Western blot) (SOX2; [3]) | SOX2 levels (Western blot) (SOX2; [4]) | transcript levels of selected stemness/EMT genes (qPCR) [1] | survival signaling via S6K and BAD (Western blot) (S6K and BAD) | drug sensitivity (survival curve, cell viability) [2] |
| --- | --- | --- | --- | --- | --- |
| Cn1cnc2c(F)c(Nc3ccc(Br)cc3Cl)c(C(=O)NOCCO)cc21 [AZD6244] | induce similar SOX2 levels | comparable effects on SOX2 levels | comparable effects on transcript levels |  |  |
| CCCS(=O)(=O)Nc1ccc(F)c(C(=O)c2c[nH]c3ncc(Cl)cc23)c1F [PLX4720] | induce similar SOX2 levels | comparable effects on SOX2 levels | comparable effects on transcript levels | repressed | decreased drug sensitivity when SOX2 is overexpressed |
